Data published in patent US20240041851A1 (priority 2020, published 2024).
Where two headings read alike, the source gives them in different places.

Tests used:
SARS-CoV-2 [1] = assay: Simultaneous Stellaris FISH and immunofluorescence: viral +strand gRNA and nucleocapsid protein (Np); format: cell-based; conditions: for restoration of viral gRNA levels in MTX-treated cells: 10011M thymidine or 1 mM formate added to 1 μM MTX; for restoration of viral gRNA levels in MTX-treated cells / rescue of translation of viral Np in MTX-treated cells: 48 hours; for rescue of translation of viral Np in MTX-treated cells: thymidine or 1 mM formate added to 1 μM MTX
[2] = test system: SARS-CoV-2 infected Vero E6 TMPRSS2+ cells; assay: Live cell number (cytopathic effect) quantification assay, Viral Tox-Glo; format: cell-based, African Green Monkey; conditions: for rescue of CPE in MTX-treated cells: thymidine or 1 mM formate added to 1 μM MTX, 48 hours
SARS-CoV-2 [3] = format: cell-based; conditions: for rescue of virion production in MTX-treated cells: thymidine or 1 mM formate added to 1 μM MTX, 48 hours
RNA flavivirus Zika = conditions: cited from earlier work

## CCCCS(=N)(=O)CCC(N)C(=O)O [BSO, L-buthionine-sulfoximine]
SARS-CoV-2 [1]
  Np levels: did not have any apparent effect
  viral gRNA levels: did not have any apparent effect

## O=C(COc1ccc(Cl)cc1)NC1CCC(NC(=O)COc2ccc(Cl)cc2)CC1 (centres unmarked) [ISRIB]
[2]
  number of live cells: increased the number of live cells
SARS-CoV-2 [1]
  Np expression: did not appreciably diminish
  viral gRNA expression: did not appreciably diminish

## C/C=C(\C)[C@H](O)[C@H](C)/C=C(C)/C=C/C/C(C)=C/Cc1nc(OC)c(OC)c(O)c1C [Piericidin A]
[2]
  viral CPE: reduced viral CPE
SARS-CoV-2 [3]
  secreted virus levels: did not have a major impact
SARS-CoV-2 [3]; listed as PierA
  secreted virus levels: did not reduce viral replication
SARS-CoV-2 [1]
  Np levels: did not have a major impact
  viral gRNA levels: did not have a major impact

## Cc1n[nH]c2c1C(c1cc(CO)cc(-c3ccccc3)c1)(C(C)C)C(C#N)=C(N)O2 (centres unmarked) [SHIN1]
[2]
  viral CPE: induced resistance to viral CPE
SARS-CoV-2 [3]
  reduction of infectious virus titer: ~1 log
SARS-CoV-2 [1]
  +strand gRNA levels: diminished
  nucleoprotein levels: diminished

## O=C[O-].[Na+] [formate, sodium formate]
[2]
  rescue of CPE in MTX-treated cells: unable to rescue
SARS-CoV-2 [3]; 1 mM formate added to 10 μM SHIN1, 48 hours
  reversal of SHIN1 effects (virus titer, gRNA, nucleoprotein, CPE): fully reversed
SARS-CoV-2 [3]
  rescue of virion production in MTX-treated cells: unable to rescue
SARS-CoV-2 [1]
  restoration of viral gRNA levels in MTX-treated cells: could only partially restore
  rescue of translation of viral Np in MTX-treated cells: unable to rescue

## O=c1[nH]cnc2nc[nH]c12 [hypoxanthine]
SARS-CoV-2 [3]
  reversal of all effects of MTX (CPE, gRNA, Np, infectious virion): could be reversed

## CN(Cc1cnc2nc(N)nc(N)c2n1)c1ccc(C(=O)N[C@@H](CCC(=O)O)C(=O)O)cc1 [methotrexate]
[2]
  virus-induced CPE: significantly blocked virus-induced CPE
RNA flavivirus Zika
  replication of the RNA flavivirus Zika: impair replication
SARS-CoV-2 [3]
  diminished secretion of infectious virion: ~2 log
SARS-CoV-2 [1]
  Np levels: reduced
  viral gRNA levels: reduced

## Cc1cn([C@H]2C[C@H](O)[C@@H](CO)O2)c(=O)[nH]c1=O [thymidine]
[2]
  rescue of CPE in MTX-treated cells: unable to rescue
SARS-CoV-2 [3]
  rescue of virion production in MTX-treated cells: unable to rescue
SARS-CoV-2 [1]
  restoration of viral gRNA levels in MTX-treated cells: could only partially restore
  rescue of translation of viral Np in MTX-treated cells: unable to rescue
